The text below walks through data of US11903907B2, “Soluble honokiol derivatives” (TAIPEI MEDICAL UNIVERSITY, priority 2017, dated 2024).

SMILES strings stand for the structures.

The test system of data set [1] is middle cerebral artery occlusion (MCAO). Briefly: Neurobehavioral functions after MCAO: neurological severity scoring and rotarod test. The class given is in vivo, mice. Particulars: 0.5 and 1 mg/kg i.v., 24 and 48 h after MCAO, P<0.05. As to the method:
Mice were subjected to middle cerebral artery occlusion (MCAO) surgery for 30 min, and then treated with the isovolumetric vehicle control (normal saline, intravenous [i.v.]) or HP-TMU (0.25, 0.5 and 1 mg/kg, i.v.) or honokiol (0.129, 0.258 and 0.516 mg/kg, i.v.). Assays of neurobehavioral functions include neurological severity scoring and the rotarod test. Evaluations were performed before and 24 and 48 h after surgery.

In data set [2] the test system is mouse tail transection model (hemostasis). Briefly: Bleeding time, mouse tail transection model. Format: in vivo, mice. Conditions: 0.5 and 1 mg/kg i.v.; measured 10 min after administration. The method, then: (§1) Coronal sections of 2,3,5-triphenyltetrazolium chloride (TTC)-stained brains were taken after middle cerebral artery occlusion (MCAO) in the vehicle group treated with an isovolumetric solvent (normal saline, intravenous [i.v.]), and groups treated with HP-TMU (0.25, 0.5 and 1 mg/kg, i.v.) or honokiol (0.129, 0.258 and 0.516 mg/kg, i.v.; the doses of honokiol were adjusted by the ratio of the molecular weight of honokiol to HP-TMU (266.33/514.22)) after 30 min-embolic occlusion. The densitometric analyses for the measurement of infarct volume and brain edema were performed after treatment with HP-TMU or honokiol against embolic stroke in mice. Bleeding time was measured 10 min after the i.v. administration of normal saline (isovolumetric control) or HP-TMU (0.5 and 1 mg/kg, i.v.) for 30 min.
(§2) In addition, MCAO-induced cerebral edema in the ischemic hemisphere was reduced by the treatment of 1 mg/kg HP-TMU (FIG. 1C). […] On the other hand, increased risk of hemorrhage is a major side effect of anti-stroke treatments. To evaluate HP-TMU in this aspect, we used the mouse tail transection model as an index of hemostasis.

Data set [3] has as its system middle cerebral artery occlusion (MCAO). Briefly: Long-term recovery after MCAO by neurological severity scoring, comparison with edaravone. The class given is in vivo, mice. Particulars: 1 mg/kg i.v.; at 1, 2, and 7 days after surgery. The method, then:
Mice were subjected to middle cerebral artery occlusion (MCAO) surgery for 30 min, and then treated with the isovolumetric vehicle control (normal saline, intravenous [i.v.]) or HP-TMU (1 mg/kg, i.v.) or edaravone (3 mg/kg, i.v.). The therapeutic effects of HP-TMU on long-term recovery were evaluated by neurological severity scoring before or 1, 2, 7, 14, and 28 days after surgery.

A short description of data set [4]: Plasma concentration of honokiol and pharmacokinetics after intravenous injection in rats. Conditions: rat plasma, i.v.
Protocol: Mean plasma concentrations of honokiol vs. time profile in five rats were measured after intravenous injection of HP-TMU or honokiol.
The plasma concentrations of honokiol at different points are expressed as mean±SD, and the mean concentration-time curve is shown in FIG. 4A.
Data set [5] concerns middle cerebral artery occlusion (MCAO) embolic stroke. Briefly: MCAO embolic stroke in mice: infarct volume and brain edema from TTC-stained brain sections. The class given is in vivo. As to the method: as §1, §2

Turning to `C=CCc1ccc(OP(=O)(O)O)c(-c2ccc(OP(=O)([O-])[O-])c(CC=C)c2)c1.[Na+].[Na+]` [HP-TMU, sodium 3′,5-diallyl-[1,1′-biphenyl]-2,4′-diyl bis(phosphate)], the “neurobehavioral (neurological) deficit scores, 18-point scale” value in data set [1] is given as “significantly ameliorated these increased scores”. In data set [1] (vs vehicle control), the “decrease of rotarod duration” value was “significant reversed”. In addition, the bleeding time result in data set [2] is recorded as “did not alter the bleeding time substantially”. In addition, the “long-term recovery of neurological deficit” value in data set [3] is listed as “significantly improved”. For the same compound, the “half-life compared to honokiol” value in data set [4] is listed as “prolonged half-life compared to honokiol”. Besides, the “MCAO-induced cerebral edema in the ischemic hemisphere” value in data set [5] (1 mg/kg i.v.) is “reduced”. The infarct volume result in data set [5] (0.5 and 1 mg/kg i.v. after 30 min-embolic occlusion, compared with solvent control group, P<0.05) is “significantly reduced the infarct volume”. The “neuroprotective effects compared with honokiol” value in data set [5] (HP-TMU 0.25, 0.5, 1 mg/kg i.v. vs honokiol 0.129, 0.258, 0.516 mg/kg i.v.) is given as “more potent neuroprotective effects than honokiol”.
